# Like-named read-outs stand apart in the source and are kept apart here.
# How the values were obtained:
# Format in all cases: in vivo
# [1] = test system: corn (Zea mays); test: Test C pre-/postemergence greenhouse test, plant response rating 0-100; conditions: Zea mays; for Corn plant response rating (crop injury, 0 = no effect, 100 = complete kill) at 250 g/ha: 250 g ai/ha
# How it was run: (§1)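 Pre- and postemergence greenhouse test: seeds sown in loam/sand and treated preemergence, or plants at 2–18 cm (1- to 4-leaf stage) in peat-based medium sprayed postemergence, with compounds in non-phytotoxic solvent plus surfactant. Visual rating versus untreated controls after 13–15 days, 0 (no effect) to 100 (complete control).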
# [2] = test system: velvetleaf (Abutilon theophrasti); test: as above; conditions: Abutilon theophrasti; for pest or weed control at 62 g/ha: 62 g ai/ha; for pest or weed control at 125 g/ha: 125 g ai/ha; for pest or weed control at 250 g/ha: 250 g ai/ha
# How it was run: as §1
# [3] = test system: pigweed (Amaranthus retroflexus); test: as above; conditions: Amaranthus retroflexus; for pest or weed control at 62 g/ha: 62 g ai/ha; for pest or weed control at 125 g/ha: 125 g ai/ha; for pest or weed control at 250 g/ha: 250 g ai/ha
# How it was run: as §1
# [4] = test system: Italian ryegrass (Lolium multiflorum); test: as above; conditions: Lolium multiflorum; for pest or weed control at 62 g/ha: 62 g ai/ha; for pest or weed control at 125 g/ha: 125 g ai/ha; for pest or weed control at 250 g/ha: 250 g ai/ha
# How it was run: as §1
# [5] = test system: ragweed (common ragweed, Ambrosia elatior); test: as above; conditions: Ambrosia artemisiifolia; for pest or weed control at 62 g/ha: 62 g ai/ha; for pest or weed control at 125 g/ha: 125 g ai/ha; for pest or weed control at 250 g/ha: 250 g ai/ha
# How it was run: as §1
# [6] = test system: giant foxtail (Setaria faberii); test: Test A pre-/postemergence greenhouse herbicide test, visual injury rating 0-100; conditions: for pest or weed control at 500 g/ha: 500 g ai/ha
# How it was run: (§2)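 Test chemicals in a non-phytotoxic solvent/surfactant blend were sprayed onto loam–sand soil after planting (pre) and onto 2–10 cm seedlings at one to two leaves (post). Greenhouse hold approx. 10 days; injury then judged visually.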
# [7] = test system: corn (Zea mays); test: as above; conditions: for plant injury at 500 g/ha: 500 g ai/ha
# How it was run: as §2
# [8] = test system: velvetleaf (Abutilon theophrasti); test: as above; conditions: for pest or weed control at 500 g/ha: 500 g ai/ha
# How it was run: as §2
# [9] = test system: morningglory (Ipomoea spp.); test: as above; conditions: for pest or weed control at 500 g/ha: 500 g ai/ha
# How it was run: as §2
# [10] = test system: pigweed (Amaranthus retroflexus); test: as above; conditions: for pest or weed control at 500 g/ha: 500 g ai/ha
# How it was run: as §2
# [11] = test system: large (Lg) crabgrass (Digitaria sanguinalis); test: as above; conditions: for pest or weed control at 500 g/ha: 500 g ai/ha
# How it was run: as §2
# [12] = test system: wheat (Triticum aestivum); test: as above; conditions: for plant injury at 500 g/ha: 500 g ai/ha
# How it was run: as §2
# [13] = test system: barnyardgrass (Echinochloa crus-galli); test: as above; conditions: for pest or weed control at 500 g/ha: 500 g ai/ha
# How it was run: as §2
# [14] = post-emergence, Postemergence, scale 0 to 100
# [15] = post-emergence, Postemergence, 500 g ai/ha, scale 0 to 100
# [16] = pre-emergence, Preemergence, 31 g ai/ha
# [17] = post-emergence, Postemergence, read-out: Plant response rating (0 to 100), Velvetleaf
# [18] = pre-emergence, Preemergence, read-out: Plant response rating, Velvetleaf
# [19] = post-emergence, Postemergence, read-out: Plant response rating (0 to 100), Pigweed
# [20] = pre-emergence, Preemergence, read-out: Plant response rating, Pigweed
# [21] = post-emergence, Postemergence, read-out: Plant response rating (0 to 100), Ryegrass, Italian
# [22] = pre-emergence, Preemergence, read-out: Plant response rating, Ryegrass, Italian
# [23] = post-emergence, Postemergence, read-out: Plant response rating (0 to 100), Ragweed
# [24] = pre-emergence, Preemergence, read-out: Plant response rating, Ragweed
compound,measurement,setting,value
"O=C(c1ccccc1)c1cn(CO)nc1-c1cc(Cl)cc(Cl)c1 [Compound 15, [3-(3,5-dichlorophenyl)-1-(hydroxymethyl)-1H-pyrazol-4-yl]phenylmethanone]",plant injury at 62 g/ha,"[1]; post-emergence, Postemergence, 62 g ai/ha",0%
same,plant injury at 125 g/ha,"[1]; post-emergence, Postemergence, 125 g ai/ha",0%
same,"Corn plant response rating (crop injury, 0 = no effect, 100 = complete kill) at 250 g/ha",[1]; [14],0%
same,"Corn plant response rating (crop injury, 0 = no effect, 100 = complete kill) at 500 g/ha",[1]; [15],0%
same,"Corn plant response rating (crop injury, 0 = no effect, 100 = complete kill) at 31 g/ha",[1]; [16],0%
same,"Corn plant response rating (crop injury, 0 = no effect, 100 = complete kill) at 62 g/ha","[1]; pre-emergence, Preemergence, 62 g ai/ha",0%
same,"Corn plant response rating (crop injury, 0 = no effect, 100 = complete kill) at 125 g/ha","[1]; pre-emergence, Preemergence, 125 g ai/ha",0%
same,"Corn plant response rating (crop injury, 0 = no effect, 100 = complete kill) at 250 g/ha","[1]; pre-emergence, Preemergence",0%
same,pest or weed control at 62 g/ha,[2]; [17],80%
same,pest or weed control at 125 g/ha,[2]; [17],80%
same,pest or weed control at 250 g/ha,[2]; [14],90%
same,pest or weed control at 500 g/ha,[2]; [15],90%
same,pest or weed control at 62 g/ha,[2]; [18],60%
same,pest or weed control at 125 g/ha,[2]; [18],100%
same,pest or weed control at 250 g/ha,"[2]; pre-emergence, Preemergence",100%
same,pest or weed control at 62 g/ha,[3]; [19],90%
same,pest or weed control at 125 g/ha,[3]; [19],100%
same,pest or weed control at 250 g/ha,[3]; [14],100%
same,pest or weed control at 500 g/ha,[3]; [15],100%
same,pest or weed control at 31 g/ha,[3]; [16],100%
same,pest or weed control at 62 g/ha,[3]; [20],100%
same,pest or weed control at 125 g/ha,[3]; [20],100%
same,pest or weed control at 250 g/ha,"[3]; pre-emergence, Preemergence",100%
same,pest or weed control at 62 g/ha,[4]; [21],0%
same,pest or weed control at 125 g/ha,[4]; [21],0%
same,pest or weed control at 250 g/ha,[4]; [14],0%
same,pest or weed control at 500 g/ha,[4]; [15],0%
same,pest or weed control at 62 g/ha,[4]; [22],0%
same,pest or weed control at 125 g/ha,[4]; [22],0%
same,pest or weed control at 250 g/ha,"[4]; pre-emergence, Preemergence",0%
same,pest or weed control at 62 g/ha,[5]; [23],60%
same,pest or weed control at 125 g/ha,[5]; [23],75%
same,pest or weed control at 250 g/ha,[5]; [14],85%
same,pest or weed control at 500 g/ha,[5]; [15],85%
same,pest or weed control at 62 g/ha,[5]; [24],35%
same,pest or weed control at 125 g/ha,[5]; [24],95%
same,pest or weed control at 250 g/ha,"[5]; pre-emergence, Preemergence",100%
same,"Foxtail, Giant plant response rating (0 = no effect, 100 = complete control)","[6]; Preemergence, 125 g ai/ha",0
same,pest or weed control at 125 g/ha,"[6]; Setaria faberi, post-emergence, 240 h, Postemergence, 125 g ai/ha, read-out: Plant response rating (0 to 100 scale), Foxtail, Giant",0%
same,pest or weed control at 500 g/ha,"[6]; Setaria faberi, post-emergence, 240 h, Postemergence, read-out: Plant response rating (0 to 100 scale), Foxtail, Giant",0%
same,pest or weed control at 500 g/ha,"[6]; Setaria faberi, pre-emergence, 240 h, Preemergence, read-out: Plant response rating (0 to 100 scale), Foxtail, Giant",0%
same,"Corn plant response rating (0 = no effect, 100 = complete control)","[7]; Preemergence, 125 g ai/ha",0
same,plant injury at 125 g/ha,"[7]; Zea mays, post-emergence, 240 h, Postemergence, 125 g ai/ha, read-out: Plant response rating (0 to 100 scale), Corn",0%
same,plant injury at 500 g/ha,"[7]; Zea mays, post-emergence, 240 h, Postemergence, read-out: Plant response rating (0 to 100 scale), Corn",0%
same,plant injury at 500 g/ha,"[7]; Zea mays, pre-emergence, 240 h, Preemergence, read-out: Plant response rating (0 to 100 scale), Corn",0%
same,pest or weed control at 125 g/ha,"[8]; Abutilon theophrasti, post-emergence, 240 h, Postemergence, 125 g ai/ha, read-out: Plant response rating (0 to 100 scale), Velvetleaf",80%
same,pest or weed control at 500 g/ha,"[8]; Abutilon theophrasti, post-emergence, 240 h, Postemergence, read-out: Plant response rating (0 to 100 scale), Velvetleaf",90%
same,pest or weed control at 500 g/ha,"[8]; Abutilon theophrasti, pre-emergence, 240 h, Preemergence, read-out: Plant response rating (0 to 100 scale), Velvetleaf",90%
same,"Velvetleaf plant response rating (0 = no effect, 100 = complete control)","[8]; Preemergence, 125 g ai/ha",40
same,pest or weed control at 125 g/ha,"[9]; Ipomoea, post-emergence, 240 h, Postemergence, 125 g ai/ha, read-out: Plant response rating (0 to 100 scale), Morningglory",0%
same,pest or weed control at 500 g/ha,"[9]; Ipomoea, post-emergence, 240 h, Postemergence, read-out: Plant response rating (0 to 100 scale), Morningglory",0%
same,pest or weed control at 500 g/ha,"[9]; Ipomoea, pre-emergence, 240 h, Preemergence, read-out: Plant response rating (0 to 100 scale), Morningglory",0%
same,"Morningglory plant response rating (0 = no effect, 100 = complete control)","[9]; Preemergence, 125 g ai/ha",0
same,pest or weed control at 125 g/ha,"[10]; Amaranthus retroflexus, post-emergence, 240 h, Postemergence, 125 g ai/ha, read-out: Plant response rating (0 to 100 scale), Pigweed",80%
same,pest or weed control at 500 g/ha,"[10]; Amaranthus retroflexus, post-emergence, 240 h, Postemergence, read-out: Plant response rating (0 to 100 scale), Pigweed",90%
same,pest or weed control at 500 g/ha,"[10]; Amaranthus retroflexus, pre-emergence, 240 h, Preemergence, read-out: Plant response rating (0 to 100 scale), Pigweed",100%
same,"Pigweed plant response rating (0 = no effect, 100 = complete control)","[10]; Preemergence, 125 g ai/ha",20
same,pest or weed control at 125 g/ha,"[11]; Digitaria sanguinalis, post-emergence, 240 h, Postemergence, 125 g ai/ha, read-out: Plant response rating (0 to 100 scale), Crabgrass, Large",0%
same,pest or weed control at 500 g/ha,"[11]; Digitaria sanguinalis, post-emergence, 240 h, Postemergence, read-out: Plant response rating (0 to 100 scale), Crabgrass, Large",0%
same,pest or weed control at 500 g/ha,"[11]; Digitaria sanguinalis, pre-emergence, 240 h, Preemergence, read-out: Plant response rating (0 to 100 scale), Crabgrass, Large",0%
same,"Crabgrass, Large plant response rating (0 = no effect, 100 = complete control)","[11]; Preemergence, 125 g ai/ha",0
same,"Wheat plant response rating (0 = no effect, 100 = complete control)","[12]; Preemergence, 125 g ai/ha",0
same,plant injury at 125 g/ha,"[12]; Triticum aestivum, post-emergence, 240 h, Postemergence, 125 g ai/ha, read-out: Plant response rating (0 to 100 scale), Wheat",0%
same,plant injury at 500 g/ha,"[12]; Triticum aestivum, post-emergence, 240 h, Postemergence, read-out: Plant response rating (0 to 100 scale), Wheat",0%
same,plant injury at 500 g/ha,"[12]; Triticum aestivum, pre-emergence, 240 h, Preemergence, read-out: Plant response rating (0 to 100 scale), Wheat",0%
same,pest or weed control at 125 g/ha,"[13]; Echinochloa crus-galli, post-emergence, 240 h, Postemergence, 125 g ai/ha, read-out: Plant response rating (0 to 100 scale), Barnyardgrass",0%
same,pest or weed control at 500 g/ha,"[13]; Echinochloa crus-galli, post-emergence, 240 h, Postemergence, read-out: Plant response rating (0 to 100 scale), Barnyardgrass",0%
same,pest or weed control at 500 g/ha,"[13]; Echinochloa crus-galli, pre-emergence, 240 h, Preemergence, read-out: Plant response rating (0 to 100 scale), Barnyardgrass",0%
same,"Barnyardgrass plant response rating (0 = no effect, 100 = complete control)","[13]; Preemergence, 125 g ai/ha",0

# Reference: US10167262B2, “Herbicidal substituted 3-arylpyrazoles” (FMC CORPORATION, priority 2014, dated 2019)
